Several values for one entry are separate records, joined by “and”; a condition that tells them apart may be missing. Equal entries are not always repeated. Where two headings read alike, the source gives them in different places.
Assays:
[1] = target: HRH1 (histamine receptor H1) (Homo sapiens, UniProt P35367); experiment: biochemical; assay type: binding
[2] = human plasma, ref Thompson Reuters Integrity, cited from earlier work; for AUC [μM*h] (median): median of reported values
[3] = test system: platelet aggregation in whole human blood; experiment: Collagen-induced platelet aggregation in whole human blood; assay type: cell-based
[4] = target: OPRM1 (opioid receptor, mu 1) (Homo sapiens, UniProt P35372); experiment: OPRM1 functional agonist assay; assay type: cell-based; conditions: Activity (μM) (median), target OPRM1; agonist per Figure S1E
OPRM1 (opioid receptor, mu 1), sequence (P35372 whole entry): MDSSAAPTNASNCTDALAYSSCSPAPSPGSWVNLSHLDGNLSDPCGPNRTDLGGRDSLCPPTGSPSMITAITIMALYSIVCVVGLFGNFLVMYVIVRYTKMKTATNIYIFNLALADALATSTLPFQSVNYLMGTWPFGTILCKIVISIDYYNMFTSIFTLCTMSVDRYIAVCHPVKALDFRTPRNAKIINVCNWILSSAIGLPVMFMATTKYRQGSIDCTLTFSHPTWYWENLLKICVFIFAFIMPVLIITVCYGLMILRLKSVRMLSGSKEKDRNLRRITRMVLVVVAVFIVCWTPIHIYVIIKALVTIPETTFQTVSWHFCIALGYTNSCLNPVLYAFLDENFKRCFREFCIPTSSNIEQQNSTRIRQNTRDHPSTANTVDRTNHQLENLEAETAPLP

PTGS1 (ovine COX-1) = target: T1, PTGS1 (ovine COX-1) (Ovis aries, UniProt P05979); experiment: biochemical
T1 sequence (P05979 25-600): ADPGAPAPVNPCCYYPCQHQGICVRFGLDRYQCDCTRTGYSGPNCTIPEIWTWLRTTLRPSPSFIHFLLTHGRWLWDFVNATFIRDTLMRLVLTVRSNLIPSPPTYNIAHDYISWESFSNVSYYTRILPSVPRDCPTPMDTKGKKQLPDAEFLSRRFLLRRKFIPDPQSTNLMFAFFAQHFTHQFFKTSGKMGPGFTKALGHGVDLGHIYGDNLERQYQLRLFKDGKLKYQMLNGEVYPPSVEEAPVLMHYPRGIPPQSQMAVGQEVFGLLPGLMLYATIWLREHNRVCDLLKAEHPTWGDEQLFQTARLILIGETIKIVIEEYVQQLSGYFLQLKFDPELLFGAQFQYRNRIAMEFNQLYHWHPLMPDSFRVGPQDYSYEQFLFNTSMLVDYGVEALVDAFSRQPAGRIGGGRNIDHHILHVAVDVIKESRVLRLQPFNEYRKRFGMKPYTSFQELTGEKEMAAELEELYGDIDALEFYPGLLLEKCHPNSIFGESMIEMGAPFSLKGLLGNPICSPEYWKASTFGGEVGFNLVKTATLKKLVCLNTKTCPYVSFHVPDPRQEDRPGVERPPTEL

[5] = target: T2, PGR (progesterone receptor) (Homo sapiens, UniProt P06401); experiment: biochemical
T2 sequence (P06401 679-913 limits assumed): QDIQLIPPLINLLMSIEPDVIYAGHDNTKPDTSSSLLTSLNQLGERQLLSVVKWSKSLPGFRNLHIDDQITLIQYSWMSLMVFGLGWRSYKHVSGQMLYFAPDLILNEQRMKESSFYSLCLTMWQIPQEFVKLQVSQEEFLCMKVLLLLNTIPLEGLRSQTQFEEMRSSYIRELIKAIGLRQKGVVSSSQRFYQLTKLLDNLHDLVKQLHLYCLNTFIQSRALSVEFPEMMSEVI

[6] = Homo sapiens, Platelet, read-out: inhibition of platelet aggregation

HRH1 (histamine receptor H1), sequence (P35367 whole entry): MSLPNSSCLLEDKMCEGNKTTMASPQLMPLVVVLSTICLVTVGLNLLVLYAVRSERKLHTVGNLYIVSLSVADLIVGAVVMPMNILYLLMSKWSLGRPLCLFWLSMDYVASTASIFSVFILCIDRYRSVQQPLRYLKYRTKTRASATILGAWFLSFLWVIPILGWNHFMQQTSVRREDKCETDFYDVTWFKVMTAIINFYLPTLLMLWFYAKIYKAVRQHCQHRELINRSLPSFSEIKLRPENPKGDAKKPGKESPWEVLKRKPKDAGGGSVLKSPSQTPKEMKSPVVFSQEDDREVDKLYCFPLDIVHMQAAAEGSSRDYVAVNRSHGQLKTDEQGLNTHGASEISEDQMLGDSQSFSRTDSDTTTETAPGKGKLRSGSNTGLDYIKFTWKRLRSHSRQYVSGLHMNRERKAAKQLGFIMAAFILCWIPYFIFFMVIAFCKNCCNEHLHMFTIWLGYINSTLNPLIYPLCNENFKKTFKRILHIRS

Compound	AUC ([2]; range of reported values) [µM·h]	Cmax ([2]; range of reported values) [nM]	AUC [μM*h] (median) [2] [µM·h]	further results
CCN(CC)CCCN(c1ccccc1)C1Cc2ccccc2C1 [Aprindine]				IC50 ([1]; IC50 [μM]): 0.78 µM
CC(Cc1ccccc1)NCCC(c1ccccc1)c1ccccc1 (centres unmarked) [Prenylamine]	0.12	1200		IC50 ([1]; Activity (μM) (median)): 7.87 µM; IC50 ([1]; IC50 [μM]): 7.9 µM
COc1ccc2c(c1)c(CC(=O)O)c(C)n2C(=O)c1ccc(Cl)cc1 [indomethacin]				inhibition at 50 µM [3, 6]: 50%
CC(NCCc1ccc(O)cc1)C(O)c1ccc(O)cc1 (centres unmarked) [Ritodrine]	0.03 to 0.32	10 to 150	0.11	EC50 [4]: 9.18 µM
COc1ccc(C(Cl)=C(c2ccc(OC)cc2)c2ccc(OC)cc2)cc1 [Chlorotrianisene]				potency of inhibition of platelet aggregation in whole blood ([3]; 0.5, 5 and 50 μM, collagen 1 μg/mL, compared with indomethacin): almost indistinguishable from that of indomethacin; IC50 (PTGS1 (ovine COX-1)): 160 nM
CN1CCN(C2=Nc3ccccc3Oc3ccc(Cl)cc32)CC1 [Loxapine]	0.03 to 0.43	20 to 410	0.21	
CNC(=C[N+](=O)[O-])NCCSCc1ccc(CN(C)C)o1 [Ranitidine]	5.66 to 121.90	1140 to 9110	9.67	
CN(C)CCC=C1c2ccccc2C=Cc2ccccc21 [Cyclobenzaprine]	0.16 to 4.10	10 to 130	0.69	Cmax ([2]; read-out: median Cmax in plasma): 61 nM; IC50 ([1]; Activity (μM) (median)): 0.02 µM; IC50 ([1]; binding to histamine H1 receptor (HRH1), IC50): 0.021 µM and 0.02 µM
CC(=O)Oc1ccccc1C(=O)O [Acetylsalicylic acid]				inhibition at 250 µM [3, 6]: 42 to 48%
C[C@H]1C[C@@H]2[C@H]([C@@H](O)C[C@@]3(C)[C@H]2CC[C@]3(O)C(=O)CO)[C@@]2(C)C=CC(=O)C=C12 [Methylprednisolone]	0.09 to 10.76	60 to 2110	1.28	EC50 [5]: 1300 nM

— publication PMC3383642 (Nature, 2012)
